In PubChem BioAssay AID330 (DTP/NCI, 2004):
Several values for one entry are separate records, joined by “and”; a condition that tells them apart may be missing. Equal values may be shown once. Toxic doses and inconclusive results are not listed. Rule for the calls: active = survival T/C of 150% or more; inactive = T/C below 125% in these data.

Tested on: P388 leukemia ip, CD2F1 mice, survival T/C
Experiment: NCI In Vivo Anticancer Drug Screen. Data for tumor model P388 Leukemia (intraperitoneal) in CD2F1 (CDF1) mice
Conditions: endpoint: median survival time, higher = longer survival
Summary of the method: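 Mice carrying the transplanted tumor received test compound or vehicle. Survival was recorded in each group, and the value is the treated-group measurement divided by that of the vehicle-treated control group.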

[1] = dose: 60.0 mg/kg/injection, schedule: Q01DX005 (ip), vehicle: saline with Tween-80
[2] = dose: 120.0 mg/kg/injection, schedule: Q01DX005 (ip), vehicle: saline with Tween-80
[3] = dose: 240.0 mg/kg/injection, schedule: Q01DX005 (ip), vehicle: saline with Tween-80
[4] = dose: 50.0 mg/kg/injection, schedule: Q01DX005 (ip), vehicle: saline with Tween-80
[5] = dose: 100.0 mg/kg/injection, schedule: Q01DX005 (ip), vehicle: saline with Tween-80
[6] = dose: 200.0 mg/kg/injection, schedule: Q01DX005 (ip), vehicle: saline with Tween-80

Measured: T/C

Cc1nnsc1-c1n[nH]c(=S)n1N
inactive: dose: 25.0 mg/kg/injection, schedule: Q01DX001 (ip), vehicle: Klucel (hydroxypropylcellulose) (HPC) 106 % of control | dose: 50.0 mg/kg/injection, schedule: Q01DX001 (ip), vehicle: Klucel (hydroxypropylcellulose) (HPC) 107 % of control | dose: 100.0 mg/kg/injection, schedule: Q01DX001 (ip), vehicle: Klucel (hydroxypropylcellulose) (HPC) 101 % of control

CCCCOC(=O)Nc1ccc(C)c(NC(=O)OCCCC)c1
inactive: dose: 50.0 mg/kg/injection, schedule: Q01DX009 (ip), vehicle: saline 100 % of control | dose: 100.0 mg/kg/injection, schedule: Q01DX009 (ip), vehicle: saline 102 % of control | dose: 200.0 mg/kg/injection, schedule: Q01DX009 (ip), vehicle: saline 100 % of control

O=c1oc2ccccc2cc1S(=O)(=O)c1ccccc1
inactive: [1] 94 % of control | [2] 91 % of control | [3] 91 % of control

COc1ccc2c(c1)c(CBr)c(C)c[n+]2[O-]
inactive: dose: 6.25 mg/kg/injection, schedule: Q01DX005 (ip), vehicle: Klucel (hydroxypropylcellulose) (HPC) 104 % of control | dose: 12.5 mg/kg/injection, schedule: Q01DX005 (ip), vehicle: Klucel (hydroxypropylcellulose) (HPC) 102 % of control | dose: 50.0 mg/kg/injection, schedule: Q01DX005 (ip), vehicle: Klucel (hydroxypropylcellulose) (HPC) 86 % of control

C=C(C)C12CC(COC(=O)c3ccccc3)C34OC5(OC1C3C1OC1(CO)C(O)C1(O)C(OC(=O)c3ccccc3)C(C)C(C(C)CCCCCCC5O)C14)O2 (centres undefined)
inactive: dose: 0.8 micrograms/kg/injection, schedule: Q01DX009 (ip), vehicle: Klucel (hydroxypropylcellulose) (HPC) 104 % of control | dose: 1.5 micrograms/kg/injection, schedule: Q01DX009 (ip), vehicle: saline 99 % of control | dose: 1.6 micrograms/kg/injection, schedule: Q01DX009 (ip), vehicle: Klucel (hydroxypropylcellulose) (HPC) 110 % of control | dose: 3.1 micrograms/kg/injection, schedule: Q01DX009 (ip), vehicle: saline 99 % of control | dose: 3.2 micrograms/kg/injection, schedule: Q01DX009 (ip), vehicle: Klucel (hydroxypropylcellulose) (HPC) 102 % of control | dose: 6.2 micrograms/kg/injection, schedule: Q01DX009 (ip), vehicle: saline 96 % of control | dose: 6.3 micrograms/kg/injection, schedule: Q01DX009 (ip), vehicle: Klucel (hydroxypropylcellulose) (HPC) 98 % of control | dose: 12.5 micrograms/kg/injection, schedule: Q01DX009 (ip), vehicle: Klucel (hydroxypropylcellulose) (HPC) 112 % of control | dose: 12.5 micrograms/kg/injection, schedule: Q01DX009 (ip), vehicle: saline with Tween-80 89 % of control | dose: 12.5 micrograms/kg/injection, schedule: Q01DX009 (ip), vehicle: saline 124 % of control | dose: 25.0 micrograms/kg/injection, schedule: Q01DX009 (ip), vehicle: Klucel (hydroxypropylcellulose) (HPC) 102 % of control | dose: 25.0 micrograms/kg/injection, schedule: Q01DX009 (ip), vehicle: saline with Tween-80 96 % of control | dose: 50.0 micrograms/kg/injection, schedule: Q01DX009 (ip), vehicle: Klucel (hydroxypropylcellulose) (HPC) 101 % of control | dose: 100.0 micrograms/kg/injection, schedule: Q01DX009 (ip), vehicle: Klucel (hydroxypropylcellulose) (HPC) 104 % of control | dose: 200.0 micrograms/kg/injection, schedule: Q01DX009 (ip), vehicle: Klucel (hydroxypropylcellulose) (HPC) 110 % of control
active: dose: 25.0 micrograms/kg/injection, schedule: Q01DX009 (ip), vehicle: saline 150 % of control | dose: 50.0 micrograms/kg/injection, schedule: Q01DX009 (ip), vehicle: saline 157 % of control and 159 % of control

COc1ccc2c(n1)Sc1nc3ccccc3nc1N2
inactive: [1] 100 % of control | [2] 100 % of control | [3] 101 % of control

O=C(O)c1sc(-c2ccccc2)c2c1-c1ccccc1C2=O
inactive: dose: 60.0 mg/kg/injection, schedule: Q01DX005 (ip), vehicle: Klucel (hydroxypropylcellulose) (HPC) 98 % of control | dose: 120.0 mg/kg/injection, schedule: Q01DX005 (ip), vehicle: Klucel (hydroxypropylcellulose) (HPC) 96 % of control | dose: 240.0 mg/kg/injection, schedule: Q01DX005 (ip), vehicle: Klucel (hydroxypropylcellulose) (HPC) 97 % of control

Nc1nc(N)c2cc(Sc3ccc4ccccc4c3)ccc2n1
inactive: dose: 50.0 mg/kg/injection, schedule: Q01DX009 (ip), vehicle: saline with Tween-80 119 % of control | dose: 200.0 mg/kg/injection, schedule: Q01DX009 (ip), vehicle: saline with Tween-80 119 % of control

COC(=O)C1c2ccc(OC)c(OC)c2C(=O)N2CCc3cc(OC)c(OC)cc3C12 (centres undefined)
inactive: dose: 50.0 mg/kg/injection, schedule: Q04DX003 (ip), vehicle: distilled water + Tween-80 93 % of control | dose: 100.0 mg/kg/injection, schedule: Q04DX003 (ip), vehicle: distilled water + Tween-80 96 % of control | dose: 200.0 mg/kg/injection, schedule: Q04DX003 (ip), vehicle: distilled water + Tween-80 87 % of control | dose: 400.0 mg/kg/injection, schedule: Q04DX003 (ip), vehicle: distilled water + Tween-80 110 % of control

O=C1C2CC=C3CCCC3C2C(=O)C2CC=C3CCCC3C12 (centres undefined)
inactive: dose: 7.5 mg/kg/injection, schedule: Q01DX009 (ip), vehicle: saline with Tween-80 105 % of control | dose: 15.0 mg/kg/injection, schedule: Q01DX009 (ip), vehicle: saline with Tween-80 102 % of control | dose: 30.0 mg/kg/injection, schedule: Q01DX009 (ip), vehicle: saline with Tween-80 106 % of control

NC(=O)C#CC(N)=O
inactive: dose: 0.11 mg/kg/injection, schedule: Q01DX009 (ip), vehicle: Klucel (hydroxypropylcellulose) (HPC) 100 % of control and 103 % of control | dose: 0.22 mg/kg/injection, schedule: Q01DX009 (ip), vehicle: Klucel (hydroxypropylcellulose) (HPC) 100 % of control and 119 % of control | dose: 0.45 mg/kg/injection, schedule: Q01DX009 (ip), vehicle: Klucel (hydroxypropylcellulose) (HPC) 103 % of control and 119 % of control | dose: 0.9 mg/kg/injection, schedule: Q01DX009 (ip), vehicle: Klucel (hydroxypropylcellulose) (HPC) 100 % of control and 114 % of control

Oc1ccc2ccccc2c1N=Nc1ccc(F)cc1
inactive: dose: 100.0 mg/kg/injection, schedule: Q04DX003 (ip), vehicle: saline with Tween-80 100 % of control | dose: 200.0 mg/kg/injection, schedule: Q04DX003 (ip), vehicle: saline with Tween-80 100 % of control | dose: 400.0 mg/kg/injection, schedule: Q04DX003 (ip), vehicle: saline with Tween-80 104 % of control

C=CCCNC(=S)S
inactive: dose: 60.0 mg/kg/injection, schedule: Q01DX005 (ip), vehicle: saline 109 % of control | dose: 120.0 mg/kg/injection, schedule: Q01DX005 (ip), vehicle: saline 107 % of control | dose: 240.0 mg/kg/injection, schedule: Q01DX005 (ip), vehicle: saline 108 % of control

CN(C)CCCNc1c2ccccc2nc2cc([N+](=O)[O-])ccc12
inactive: dose: 0.1 mg/kg/injection, schedule: Q01DX009 (ip), vehicle: water 103 % of control | dose: 0.2 mg/kg/injection, schedule: Q01DX009 (ip), vehicle: water 104 % of control | dose: 0.39 mg/kg/injection, schedule: Q01DX009 (ip), vehicle: water 100 % of control | dose: 0.78 mg/kg/injection, schedule: Q01DX009 (ip), vehicle: water 100 % of control and 117 % of control | dose: 1.56 mg/kg/injection, schedule: Q01DX009 (ip), vehicle: water 102 % of control and 108 % of control | dose: 3.13 mg/kg/injection, schedule: Q01DX009 (ip), vehicle: water 123 % of control | dose: 6.25 mg/kg/injection, schedule: Q01DX009 (ip), vehicle: water 95 % of control

CCOC(=O)CC(=O)CC(C(=O)OCC)C(=O)OCC
inactive: [4] 98 % of control | [5] 104 % of control | [6] 105 % of control

CC(C)CC(NCc1ccccc1)C(=O)O (centres undefined)
inactive: [4] 95 % of control | [5] 100 % of control | [6] 95 % of control

CC1(C)c2cccc(O)c2C(=O)C2C(O)=C3C(O)=C(C(N)=O)C(=O)CC3C(O)C21 (centres undefined)
inactive: [1] 109 % of control | [2] 111 % of control | [3] 121 % of control

CC(=O)c1ccc(Nc2cc(C)nc(N)n2)cc1
inactive: dose: 15.0 mg/kg/injection, schedule: Q01DX005 (ip), vehicle: saline with Tween-80 103 % of control | dose: 30.0 mg/kg/injection, schedule: Q01DX005 (ip), vehicle: saline with Tween-80 104 % of control | [1] 100 % of control and 105 % of control | dose: 100.0 mg/kg/injection, schedule: Q04DX002 (ip), vehicle: saline with Tween-80 112 % of control | dose: 200.0 mg/kg/injection, schedule: Q04DX002 (ip), vehicle: saline with Tween-80 96 % of control | dose: 400.0 mg/kg/injection, schedule: Q04DX002 (ip), vehicle: saline with Tween-80 99 % of control

CCC(=O)Cc1nc2nnc(N)n2nc1CC(=O)CC
inactive: dose: 50.0 mg/kg/injection, schedule: Q01DX005 (ip), vehicle: saline 100 % of control | dose: 100.0 mg/kg/injection, schedule: Q01DX005 (ip), vehicle: saline 107 % of control | dose: 200.0 mg/kg/injection, schedule: Q01DX005 (ip), vehicle: saline 98 % of control
